Source: BigSolDB 2.1

Cc1cc([N+](=O)[O-])ccc1N
Settings | solubility (mole fraction)
in 2-butanone, 278.15 K | 0.0846
in 2-butanone, 280.65 K | 0.0899
in 2-butanone, 283.15 K | 0.0955
in 2-butanone, 285.65 K | 0.101
in 2-butanone, 288.15 K | 0.107
in 2-butanone, 290.65 K | 0.114
in 2-butanone, 293.15 K | 0.12
in 2-butanone, 295.65 K | 0.127
in 2-butanone, 298.15 K | 0.134
in 2-butanone, 300.65 K | 0.141
in 2-butanone, 303.15 K | 0.149
in 2-butanone, 305.65 K | 0.157
in 2-butanone, 308.15 K | 0.165
in 2-butanone, 310.65 K | 0.174
in 2-butanone, 313.15 K | 0.183
in acetone, 278.15 K | 0.0764
in acetone, 280.65 K | 0.0815
in acetone, 283.15 K | 0.0875
in acetone, 285.65 K | 0.0933
in acetone, 288.15 K | 0.0996
in acetone, 290.65 K | 0.106
in acetone, 293.15 K | 0.113
in acetone, 295.65 K | 0.12
in acetone, 298.15 K | 0.127
in acetone, 300.65 K | 0.135
in acetone, 303.15 K | 0.142
in acetone, 305.65 K | 0.151
in acetonitrile, 278.15 K | 0.0308
in acetonitrile, 280.65 K | 0.0335
in acetonitrile, 283.15 K | 0.0362
in acetonitrile, 285.65 K | 0.039
in acetonitrile, 288.15 K | 0.0423
in acetonitrile, 290.65 K | 0.0456
in acetonitrile, 293.15 K | 0.0491
in acetonitrile, 295.65 K | 0.0528
in acetonitrile, 298.15 K | 0.0566
in acetonitrile, 300.65 K | 0.0607
in acetonitrile, 303.15 K | 0.0651
in acetonitrile, 305.65 K | 0.0699
in acetonitrile, 308.15 K | 0.0747
in acetonitrile, 310.65 K | 0.0797
in acetonitrile, 313.15 K | 0.0852
in cyclohexane, 283.15 K | 2.5e-05
in cyclohexane, 285.65 K | 2.87e-05
in cyclohexane, 288.15 K | 3.37e-05
in cyclohexane, 290.65 K | 3.87e-05
in cyclohexane, 293.15 K | 4.47e-05
in cyclohexane, 295.65 K | 5.27e-05
in cyclohexane, 298.15 K | 6.13e-05
in cyclohexane, 300.65 K | 6.99e-05
in cyclohexane, 303.15 K | 8.08e-05
in cyclohexane, 305.65 K | 9.26e-05
in cyclohexane, 308.15 K | 0.000108
in cyclohexane, 310.65 K | 0.000122
in cyclohexane, 313.15 K | 0.000139
in ethanol, 278.15 K | 0.00732
in ethanol, 280.65 K | 0.00807
in ethanol, 283.15 K | 0.00887
in ethanol, 285.65 K | 0.00974
in ethanol, 288.15 K | 0.0107
in ethanol, 290.65 K | 0.0117
in ethanol, 293.15 K | 0.0127
in ethanol, 295.65 K | 0.0139
in ethanol, 298.15 K | 0.0152
in ethanol, 300.65 K | 0.0165
in ethanol, 303.15 K | 0.018
in ethanol, 305.65 K | 0.0197
in ethanol, 308.15 K | 0.0213
in ethanol, 310.65 K | 0.0231
in ethanol, 313.15 K | 0.025
in ethyl acetate, 278.15 K | 0.062
in ethyl acetate, 280.65 K | 0.0669
in ethyl acetate, 283.15 K | 0.0722
in ethyl acetate, 285.65 K | 0.0776
in ethyl acetate, 288.15 K | 0.0837
in ethyl acetate, 290.65 K | 0.0897
in ethyl acetate, 293.15 K | 0.096
in ethyl acetate, 295.65 K | 0.103
in ethyl acetate, 298.15 K | 0.11
in ethyl acetate, 300.65 K | 0.117
in ethyl acetate, 303.15 K | 0.125
in ethyl acetate, 305.65 K | 0.133
in ethyl acetate, 308.15 K | 0.142
in ethyl acetate, 310.65 K | 0.151
in ethyl acetate, 313.15 K | 0.16
in isopropanol, 278.15 K | 0.00459
in isopropanol, 280.65 K | 0.00511
in isopropanol, 283.15 K | 0.00572
in isopropanol, 285.65 K | 0.00635
in isopropanol, 288.15 K | 0.00707
in isopropanol, 290.65 K | 0.00781
in isopropanol, 293.15 K | 0.00865
in isopropanol, 295.65 K | 0.00961
in isopropanol, 298.15 K | 0.0106
in isopropanol, 300.65 K | 0.0118
in isopropanol, 303.15 K | 0.0129
in isopropanol, 305.65 K | 0.0142
in isopropanol, 308.15 K | 0.0157
in isopropanol, 310.65 K | 0.0172
in isopropanol, 313.15 K | 0.0189
in methanol, 278.15 K | 0.00834
in methanol, 280.65 K | 0.00913
in methanol, 283.15 K | 0.0101
in methanol, 285.65 K | 0.0109
in methanol, 288.15 K | 0.0119
in methanol, 290.65 K | 0.0131
in methanol, 293.15 K | 0.0142
in methanol, 295.65 K | 0.0155
in methanol, 298.15 K | 0.0168
in methanol, 300.65 K | 0.018
in methanol, 303.15 K | 0.0198
in methanol, 305.65 K | 0.0213
in methanol, 308.15 K | 0.0231
in methanol, 310.65 K | 0.0249
in methanol, 313.15 K | 0.027
in n-butanol, 278.15 K | 0.00492
in n-butanol, 280.65 K | 0.00552
in n-butanol, 283.15 K | 0.00618
in n-butanol, 285.65 K | 0.00691
in n-butanol, 288.15 K | 0.00778
in n-butanol, 290.65 K | 0.00858
in n-butanol, 293.15 K | 0.00951
in n-butanol, 295.65 K | 0.0106
in n-butanol, 298.15 K | 0.0118
in n-butanol, 300.65 K | 0.0131
in n-butanol, 303.15 K | 0.0145
in n-butanol, 305.65 K | 0.016
in n-butanol, 308.15 K | 0.0177
in n-butanol, 310.65 K | 0.0196
in n-butanol, 313.15 K | 0.0216
in n-propanol, 278.15 K | 0.00631
in n-propanol, 280.65 K | 0.00701
in n-propanol, 283.15 K | 0.00776
in n-propanol, 285.65 K | 0.00853
in n-propanol, 288.15 K | 0.00939
in n-propanol, 290.65 K | 0.0103
in n-propanol, 293.15 K | 0.0113
in n-propanol, 295.65 K | 0.0124
in n-propanol, 298.15 K | 0.0136
in n-propanol, 300.65 K | 0.0148
in n-propanol, 303.15 K | 0.0162
in n-propanol, 305.65 K | 0.0176
in n-propanol, 308.15 K | 0.0192
in n-propanol, 310.65 K | 0.0209
in n-propanol, 313.15 K | 0.0227
in toluene, 278.15 K | 0.00159
in toluene, 280.65 K | 0.00178
in toluene, 283.15 K | 0.00204
in toluene, 285.65 K | 0.0023
in toluene, 288.15 K | 0.00258
in toluene, 290.65 K | 0.00285
in toluene, 293.15 K | 0.00317
in toluene, 295.65 K | 0.00353
in toluene, 298.15 K | 0.00391
in toluene, 300.65 K | 0.00439
in toluene, 303.15 K | 0.0048
in toluene, 305.65 K | 0.00527
in toluene, 308.15 K | 0.00584
in toluene, 310.65 K | 0.00645
in toluene, 313.15 K | 0.00714
